Reference: US12121524B2, “DNA-PK inhibitors” (VERTEX PHARMACEUTICALS INCORPORATED, priority 2018, dated 2024)
Several values for one entry are separate records, joined by “and”; a condition that tells them apart may be missing. Equal values may be shown once.

Assays:
CD34+ cells = assay: HDR gene editing rates in CD34+ cells, spCAS9 mRNA, AAVS1 (Example 20); assay type: cell-based, human; conditions: AAVS1 sgRNA, AAVS1 Non-PAM ssODN, 72 hs, FIGS. 8-10
Protocol: To investigate the effect of DNA-PK inhibitors on HDR gene editing rates, CD34^+ cells were electroporated with spCAS9 mRNA, AAVS1 sgRNA and AAVS1 Non-PAM ssODN and then incubated with different concentrations of Compounds 666, 661, 663 or left untreated (Control). Gene editing rates were determined by using TIDE assay 72 hs after electroporation. Gene editing rates were expressed in percentages and classified as HDR and NHEJ. Cell survival rates are shown in percentages where control cells were set as 100%.

mPB CD34+ cells [1] = assay: CD34+ cell viability (Cell Titer Glo), Example 19; assay type: cell-based, human; conditions: untreated control = 100
Protocol: (§1) CD34^+ cells were electroporated two days post thaw. The following conditions were used for electroporation: 2.0×E6 cells, 15 μg Cas9 protein (Feldan), 15 μg sgRNA, 1 μM of ssODN in 100 μl of P3 electroporation buffer using program CA-137. Electroporated cells were transferred by equally dividing them into eight wells of a 24-well plate, each well containing various concentrations of DNA-PK inhibitors. Cells were incubated at 37° C. in a 5% CO2 incubator for two days and evaluated for cell viability and gene editing.
CD34^+ HSPCs cell survival was measured using Cell Titer Glo (CTG) reagent (Promega). 100 μl of cell suspension was mixed with 100 μl complete CTG reagent. The chemiluminescent signal was measure using a luminometer and % of viable cells was calculated as compared to control cells (cells not treated with the DNA-PK inhibitors).
(§2) mPB CD34^+ cells were electroporated with RNP (spCAS9 protein+NAV1.7 sgRNA) and NAV1.7 Non-PAM ssODN. Cells were then incubated with various concentrations of Compounds 661, 663 and 666. Experiments were done as described in the methods above, except lower concentrations of sgRNA (5 μg) and ssODN (0.2 μM) were used. Gene editing rates were determined by using TIDE assay 48 h after electroporation. Gene editing rates were expressed in percentages and classified as HDR and NHEJ.

mPB CD34+ cells [2] = assay: Gene editing rates in CD34+ cells, Example 19 (lower sgRNA and ssODN); assay type: cell-based, human; conditions: for % HDR: NAV1.7, 48 h
Protocol: Primary human mobilized peripheral blood (mPB) CD34^+ hematopoietic stem and progenitor cells (HSPCs) were purchased from Hemacare or AllCells. Cells were thawed, washed and resuspended in complete medium comprised of serum free medium CellGro SCGM (CellGenix) and supplemented with cytokine mix (300 ng/mL SCF, 300 ng/mL Flt3 L, 100 ng/mL TPO, 60 ng/ml IL-3) at a density of 1-3×10^5 cells per mL and incubated at 37° C./5% CO2 incubator for 48 hours prior to electroporation.
as §1
Genomic DNA was isolated by incubating cells with 50 ul DNA Quickextract solution (Epicentre) per well of 96 well plate for 30 min at 37° C. Cellular extract was mixed and transferred into a PCR plate and then incubated for 6 min at 65° C. and 2 min at 98° C. PCR reactions were carried out with 1 ul of Genomic DNA containing solution by using AccuPrime™ Pfx DNA Polymerase (Thermofisher, 12344024). PCR conditions were 4 min at 94° C. (1×), followed by 15 s at 94° C., 15 s at 60° C. and 1 min at […]. The PCR products were purified and then Sanger sequenced by GENEWIZ. The following primer pairs spanning the target site were used for PCR (FW, forward; RV, reverse). Primers used by Sanger Sequencing are indicated by an asterisk (*): […]
Each sequence chromatogram was analyzed using TIDE (Tracking of Indels by Decomposition) software (http://tide.nki.nl) (See also Brinkman et al., Nucleic Acids Research, Volume 42, Issue 22, 16 Dec. 2014, Pages e168). Mock-electroporated samples were used as the reference sequence, and parameters were set to an indel size of 30 nt, and the decomposition window was set to cover the largest possible window with high-quality traces. Total indel (insertion and deletions) rates were obtained directly from TIDE plots. HDR rates were the percentage of events with an insertion of 10 Nucleotides. NHEJ Rates were calculated as Total Indel rate−HDR rate. GraphPad Prism 7 software was used to make Graphs and to calculate the all Statistical information.
as §2

DNA-PK = DNA-PK (Homo sapiens, UniProt P78527); assay: DNA-PK inhibition assay (standard radiometric 33P-ATP kinase assay); assay type: biochemical; conditions: 100 μM ATP, approx. 6 nM DNA-PK
Protocol: Compounds were screened for their ability to inhibit DNA-PK kinase using a standard radiometric assay. Briefly, in this kinase assay the transfer of the terminal ^33P-phosphate in ^33P-ATP to a peptide substrate is interrogated. The assay was carried out in 384-well plates to a final volume of 50 μL per well containing approximately 6 nM DNA-PK, 50 mM HEPES (pH 7.5), 10 mM MgCl2, 25 mM NaCl, 0.01% BSA, 1 mM DTT, 10 μg/mL sheared double-stranded DNA (obtained from Sigma), 0.8 mg/mL DNA-PK peptide (Glu-Pro-Pro-Leu-Ser-Gln-Glu-Ala-Phe-Ala-Asp-Leu-Trp-Lys-Lys-Lys, obtained from American Peptide), and 100 μM ATP.
Accordingly, compounds of the invention were dissolved in DMSO to make 10 mM initial stock solutions. Serial dilutions in DMSO were then made to obtain the final solutions for the assay. A 0.75 μL aliquot of DMSO or inhibitor in DMSO was added to each well, followed by the addition of ATP substrate solution containing ^33P-ATP (obtained from Perkin Elmer). The reaction was started by the addition of DNA-PK, peptide and ds-DNA. After 45 min, the reaction was quenched with 25 μL of 5% phosphoric acid. The reaction mixture was transferred to MultiScreen HTS 384-well PH plates (obtained from Millipore), allowed to bind for one hour, and washed three times with 1% phosphoric acid. Following the addition of 50 μL of Ultima Gold™ high efficiency scintillant (obtained from Perkin Elmer), the samples were counted in a Packard TopCount NXT Microplate Scintillation and Luminescence Counter (Packard BioScience). The Ki values were calculated using Microsoft Excel Solver macros to fit the data to the kinetic model for competitive tight-binding inhibition.

Row | Structure (SMILES) | HDR rates (CD34+ cells) | Viability (mPB CD34+ cells [1]; Donor A, 1.11 μM) | Viability (mPB CD34+ cells [1]; Donor A, 3.33 μM) | Viability (mPB CD34+ cells [1]; Donor A, 10.00 μM) | Viability (mPB CD34+ cells [1]; Donor D, 1.11 μM) | Viability (mPB CD34+ cells [1]; Donor D, 3.33 μM) | Viability (mPB CD34+ cells [1]; Donor D, 10.00 μM) | % NHEJ (mPB CD34+ cells [2]; Donor A, 0.37 μM) [%] | % HDR (mPB CD34+ cells [2]; Donor A, 0.37 μM) [%] | % Indels (mPB CD34+ cells [2]; Donor A, 1.11 μM) [%] | % NHEJ (mPB CD34+ cells [2]; Donor A, 1.11 μM) [%] | % WT (mPB CD34+ cells [2]; Donor A, 1.11 μM) [%] | % HDR (mPB CD34+ cells [2]; Donor A, 1.11 μM) [%] | % Indels (mPB CD34+ cells [2]; Donor A, 3.33 μM) [%] | % WT (mPB CD34+ cells [2]; Donor A, 3.33 μM) [%] | % HDR (mPB CD34+ cells [2]; Donor A, 3.33 μM) [%] | % NHEJ (mPB CD34+ cells [2]; Donor A, 10 μM) [%] | % Indels (mPB CD34+ cells [2]; Donor A, 10.00 μM) [%] | % WT (mPB CD34+ cells [2]; Donor A, 10.00 μM) [%] | % HDR (mPB CD34+ cells [2]; Donor A, 10 μM) [%] | further results
1 | CNC(=O)c1ccnc(N[C@H]2CC[C@@H](Oc3cc(N4CCOCC4)cc4nonc34)CC2)n1 [Compound 666, N-methyl-2-((4-((6-morpholinobenzo[c][1,2,5]oxadiazol-4-yl)oxy)cyclohexyl)amino)pyrimidine-4-carboxamide] | improve HDR rates | 65 | 42 | 36 | 76 | 69 | 34 | 67.3 | 23.2 | 58.8 | 58.8 | 3.5 | 31.5 | 56.5 | 5.8 | 32.4 | 52 | 52 | 9.7 | 33.6 | % NHEJ (mPB CD34+ cells [2]; Donor D, 0.37 μM): 79.2%; % HDR (mPB CD34+ cells [2]; Donor D, 0.37 μM): 5.5%; % Indels (mPB CD34+ cells [2]; Donor D, 1.11 μM): 77.5%; % NHEJ (mPB CD34+ cells [2]; Donor D, 1.11 μM): 77.5%; % WT (mPB CD34+ cells [2]; Donor D, 1.11 μM): 6.2%; % HDR (mPB CD34+ cells [2]; Donor D, 1.11 μM): 11%; % Indels (mPB CD34+ cells [2]; Donor D, 3.33 μM): 73.8%; % WT (mPB CD34+ cells [2]; Donor D, 3.33 μM): 5.3%; % HDR (mPB CD34+ cells [2]; Donor D, 3.33 μM): 14.3%; % NHEJ (mPB CD34+ cells [2]; Donor D, 10 μM): 69%; % Indels (mPB CD34+ cells [2]; Donor D, 10.00 μM): 69%; % WT (mPB CD34+ cells [2]; Donor D, 10.00 μM): 11.8%; % HDR (mPB CD34+ cells [2]; Donor D, 10 μM): 13.7%; Ki (DNA-PK): 1 nM and < 100 nM
2 | CNC(=O)c1ccnc(N[C@H]2CC[C@@H](Oc3cc(N4CCOCC4)cc4nccnc34)CC2)n1 [Compound 661] | improve HDR rates | 60 | 47 | 6 | 62 | 75 | 11 | 66.2 | 21.8 | 59.4 | 59.4 | 4.2 | 31.7 | 57.8 | 5.1 | 32.2 | 47 | 47 | 18.9 | 28 | % NHEJ (mPB CD34+ cells [2]; Donor D, 0.37 μM): 78.1%; % HDR (mPB CD34+ cells [2]; Donor D, 0.37 μM): 6.9%; % Indels (mPB CD34+ cells [2]; Donor D, 1.11 μM): 77.5%; % NHEJ (mPB CD34+ cells [2]; Donor D, 1.11 μM): 77.5%; % WT (mPB CD34+ cells [2]; Donor D, 1.11 μM): 6%; % HDR (mPB CD34+ cells [2]; Donor D, 1.11 μM): 10.8%; % Indels (mPB CD34+ cells [2]; Donor D, 3.33 μM): 76.7%; % WT (mPB CD34+ cells [2]; Donor D, 3.33 μM): 6.4%; % HDR (mPB CD34+ cells [2]; Donor D, 3.33 μM): 11.5%; % NHEJ (mPB CD34+ cells [2]; Donor D, 10 μM): 64.2%; % Indels (mPB CD34+ cells [2]; Donor D, 10.00 μM): 64.2%; % WT (mPB CD34+ cells [2]; Donor D, 10.00 μM): 11.1%; % HDR (mPB CD34+ cells [2]; Donor D, 10 μM): 13.4%; Ki (DNA-PK): 1 nM
